For series [1], the system named is HepG2 liver cancer cell lines. The series can be described thus: Cytotoxicity, CCK-8 kit, multi-cell lines (Experiment 1). The series is classed as cell-based. Conditions: HepG 2, 24 hours. (In general: Tetrazolium dyes change colour on reduction, which living cells bring about.)
For series [2], the system named is MDA-MB-231 highly metastatic breast cancer cell line. Described as above. In kind it is cell-based. Particulars: MDA-MB-231, 24 hours.
In series [3] the test system is DU145 prostate cancer cells. The description is as above. The series is classed as cell-based. Particulars: DU145, 24 hours.
The subject of series [4] is HEK293 human renal epithelial cell line. The series is described as above. Particulars: HEK293, 24 hours. In kind it is cell-based.
The test system of series [5] is COS7 renal epithelial cells. The description is as above. The series is classed as cell-based. Conditions: COS7, 24 hours.
A further series has as its system Raw264.7. The description is as above. The series is classed as cell-based. Particulars: Raw264.7, 24 hours.
Another series relates to HeLa tumors. The series can be described thus: In vivo tumor suppression experiment. Also on record: species or system nude mice. Conditions: after 21 days of treatment, once every 2 days. The protocol: Nude mice carrying HeLa tumors were divided into 4 […], each with 8 mice. […] The dosage was […], and the administration frequency was once every 2 days. The volume of the tumor was calculated with the length and width of the tumor according to the following formula:
Tumor volume (mm^3)=½×length×width^2.
After 21 days, the nude mice of each group were died and dissected. The tumor inhibition was calculated according to the following formula: […]
in which Wc and Wt were the masses of the tumors in the control group and the experimental group, respectively.

Series [6] in a line: Hematological analysis of liver and kidney function. The series is classed as in vivo, nude mice. Conditions: blood samples after treatment. An excerpt: The research indicators included alanine aminotransferase (ALT), urea nitrogen (BUN), triglycerides (TG), creatine kinase (CK), aspartate aminotransferase (AST), creatinine (CREA), high Density lipoprotein (HDLC), and lactate dehydrogenase (LDH).
The kidney function was related to the blood indicators of BUN and CREA and the liver function. The results about alanine aminotransferase (ALT) and aspartate aminotransferase (AST) in the blood of nude mice were shown in FIG. 8.

The nature of series [7]: H&E staining analysis of major organs. The series is classed as in vivo, nude mice. Conditions: after treatment. From the text:
Further, the parts such as heart, spleen, lung, liver, and kidney were subjected to the H&E staining analysis.

The subject of series [8] is HeLa. Kind of series: Cytotoxicity, CCK-8 kit, multi-cell lines (Experiment 1). Particulars: 24 hours.
Method: (§2) The cells were cultured in a cell incubator containing 5% CO2 under the atmosphere of saturated steam at a constant temperature of 37° C. The medium used was a high-sugar Dulbecco's modified Eagle's medium containing 10% fetal bovine serum, 100 μg/mL penicillin and 100 U/mL streptomycin. The cells were grown in a six-well culture plate and passaged every other day. The cytotoxicity of the complex was evaluated by the CCK-8 kit, in which the cells were passed to a 96-well plate containing about 25,000 of cells and 200 µL of medium in each well. After the cells had grown stably and adherently, the medium was changed to complete mediums with different concentrations of the complex to be detected, and a 3-well parallel experiment was performed for each concentration. After culturing in the incubator for 24 hours, the medium was removed and the cells were washed with 100 L of PBS buffer (pH=7.4) for 3 times. Subsequently, 100 L mixture of 10% CCK-8 solution and 90% serum-free medium was added into both the test wells and the control wells, and then was placed in an incubator for culturing. After about 1 hour, the absorption of 450 nm wavelength light in the test and control wells were measured by using a microplate reader, and the cell viabilities (CV) under different concentrations of the complex were calculated according to the following formula: […]
In series [9] the test system is A375 human malignant melanoma cell line. The series is described as above. Particulars: A375, 24 hours.
Method: as §2
Series [10] has as its system MCF7. The series is described as above. Particulars: MCF7, 24 hours.
Method: as §2
Series [11] relates to A549. The series is described as above. Conditions: A549, 24 hours.
Another series deals with A375. Kind of series: In vitro anticancer activities of complexes (Experiment 2). Conditions: A375, 24 hours. In kind it is cell-based, human. From the text: (§1) The cell lines used in the experiments were obtained from Peking University.
The test system of series [12] is A549. The description is as above. In kind it is cell-based, human. Conditions: A549, 24 hours.
From the text: as §1

The subject of series [13] is HeLa. The series is described as above. The series is classed as cell-based, human. Conditions: 24 hours.
From the text: as §1

For series [14], the system named is MCF7. The description is as above. The series is classed as cell-based, human. Conditions: MCF7, 24 hours.
From the text: as §1

Another series deals with SW480. The description is as above. The series is classed as cell-based, human. Conditions: SW480, 24 hours.
From the text: as §1

The next series deals with HepG2. The description is as above. In kind it is cell-based. Particulars: HepG 2, 24 hours.
From the text: as §1

The subject of the next series is human microglia CHEM5. The series is described as above. Conditions: CHEM 5, 24 hours. In kind it is cell-based.
From the text: as §1

For series [15], the system named is normal colonic epithelial cells NCM460. Described as above. Conditions: NCM460, 24 hours. The series is classed as cell-based.
From the text: as §1

Series [16] relates to human umbilical vein endothelial cells HUVEC. Described as above. Particulars: 24 hours. In kind it is cell-based. As to the method:
as §1
The safety index (SI) was calculated according to the following equation:
^bSafety Index (SI)=IC50(HUVEC)/IC50(Hela)

The values that follow come from US20210253603A1, “MAIN GROUP METAL COMPLEX AND ITS PREPARATION METHOD AND USE” (PEKING UNIVERSITY, priority 2018, published 2021).

Usually IC50 stands for the concentration needed to halve the response being measured. A higher IC50 goes with weaker potency in that assay.

In the case of `N.N.[Cl][Pt][Cl]` [cisplatin, reference compound], the concentration for half-maximal inhibition (IC50) in series [1] turned out to be 5.3 ± 0.1 µM; in series [2], 27 ± 1.3 µM; in series [3], 2.7 ± 0.1 µM; in series [4], 2 ± 0.1 µM; in [5] it was 6.7 ± 0.6 µM; with Raw264.7, 10.1 ± 1.2 µM. For the same compound, the half-maximal inhibitory concentration (IC50) in the series with HeLa [8] turned out to be 5.3 ± 0.3 µM; in series [9], 3.4 ± 0.3 µM; in the series on MCF7 [10] it was 9.1 ± 0.9 µM; with A549 [11], 9.4 ± 1.5 µM. This compound also registered a tumor inhibition in the series with HeLa tumors of 29.9%. Further, the “effects on liver and kidney function (blood indicators ALT, AST, BUN, CREA)” value in series [6] was “acute toxicity against the liver and the kidney”. Also, the “H&E staining of liver and kidney” value in [7] is “liver edema and degeneration and kidney swelling”.

As to `C#CCN(C)c1ccc2c(c1)[O][Ga-3]13([N+]#CC)([N+]#CC)[O]c4cc(N(C)CC#C)ccc4C=[N+]1C(C#N)=C(C#N)[N+]3=C2.Cl` [Complex 8], the IC50 in the series on A375 is 229 µM; with A549 [12], 139 µM; in the series on HeLa [13], 260 µM; in the series on MCF7 [14], 190 µM; in the series on SW480, 572 µM; with HepG2, 291 µM. The 50% inhibitory concentration (IC50) in the series on human microglia CHEM5 was 236 µM; in series [15] it was 71 µM; in series [16], 203 µM.

On to `CC#[N+][Ga-3]123([N+]#CC)[O]c4cc(N(C)CCCC)ccc4C=[N+]1C(C#N)=C(C#N)[N+]2=Cc1ccc(N(C)CCCC)cc1[O]3.Cl` [Complex 13], for which the IC50 was 0.9 µM in the series on A375; 2.72 µM with A549 [12]; 21.5 µM with HeLa [13]; 1.74 µM in the series on MCF7 [14]; 4.1 µM with SW480; 20.9 µM in the series on HepG2. Further, the values for the concentration for half-maximal inhibition (IC50) (in the series on human microglia CHEM5; in series [15]; in [16]) were 2.28 µM, 20.6 µM and 3.5 µM, respectively.

Consider `CC#[N+][Ga-3]123([N+]#CC)[O]c4cc(N(C)C)ccc4C=[N+]1C(C#N)=C(C#N)[N+]2=Cc1ccc(N(C)C)cc1[O]3.Cl` [Complex 6], for which the half-maximal inhibitory concentration (IC50) came to 0.07 µM in the series with A375; 1.38 µM in the series on A549 [12]; 1.38 µM with HeLa [13]; 0.47 µM in the series with MCF7 [14]; 4.85 µM in the series with SW480; 7.75 µM in the series with HepG2. Further, the figures for the IC50 (in the series with human microglia CHEM5; in [15]; in series [16]) were 2.27 µM, 6.44 µM and 4.09 µM, respectively.

Turning to `CC#[N+][Ga-3]123([N+]#CC)[O]c4ccccc4C=[N+]1c1ccccc1[N+]2=Cc1ccccc1[O]3.Cl` [Complex 14], the 50% inhibitory concentration (IC50) with A375 is 24 µM; with A549 [12], 76.5 µM; with HeLa [13] it was 19.5 µM; in the series with MCF7 [14], 53 µM; with SW480 it was 257 µM; in the series on HepG2 it was 38.6 µM. Besides, the figures for the half-maximal inhibitory concentration (IC50) (in the series on human microglia CHEM5; in series [15]; in series [16]) were 65.1 µM, 212 µM and 163 µM, respectively.

On to `CC#[N+][Ga-3]123([N+]#CC)[O]c4ccccc4C=[N+]1C(C#N)=C(C#N)[N+]2=Cc1ccccc1[O]3.Cl` [Complex 4], for which the IC50 in the series with A375 worked out at 2.2 µM; with A549 [12] it was 1.16 µM; in the series with HeLa [13], 75.3 µM; in the series with MCF7 [14] it was 134 µM; with SW480 it was 0.59 µM; with HepG2, 43.5 µM. Also, the IC50 in the series with human microglia CHEM5 came out at 1.64 µM; in series [15] it was 27.7 µM; in [16] it was 6.37 µM.

On to `CC#[N+][Ga-3]123([N+]#CC)[O]c4cc5c(cc4C=[N+]1C(C#N)=C(C#N)[N+]2=Cc1cc2c(cc1[O]3)N(C)CCS2)SCCN5C.Cl` [Complex 12], for which the IC50 in the series on A375 came out at 10.8 µM; with A549 [12] it was 39.3 µM; with HeLa [13] it was 45.8 µM; in the series on MCF7 [14], 43.5 µM; in the series on SW480, 42.6 µM; with HepG2, 34.6 µM. In addition, the IC50 is 44.7 µM in the series on human microglia CHEM5, 89.9 µM in series [15] and 58.9 µM in series [16].

As to `CC#[N+][Ga-3]123([N+]#CC)[O]c4cc(N(CC)CC)ccc4C=[N+]1c1ccncc1[N+]2=Cc1ccc(N(CC)CC)cc1[O]3.Cl` [Complex 15], the IC50 with A375 turned out to be 215 µM; in the series with A549 [12], 273 µM; in the series on HeLa [13], 97.4 µM; in the series on MCF7 [14], 204 µM; with SW480, 325 µM; in the series on HepG2, 89.7 µM. Besides, the IC50 in the series with human microglia CHEM5 was found to be 298 µM; in series [15] it was 340 µM; in [16], 75.8 µM.

For the compound `CC#[N+][Ga-3]123([N+]#CC)[O]c4cc(N5CCCC5)ccc4C=[N+]1C(C#N)=C(C#N)[N+]2=Cc1ccc(N2CCCC2)cc1[O]3.Cl` [Complex 7], the IC50 in the series on A375 amounted to 1.4 µM; in the series with A549 [12], 3.56 µM; with HeLa [13] it was 8.61 µM; in the series with MCF7 [14], 14.2 µM; in the series on SW480 it was 7.58 µM; with HepG2, 10.3 µM. In addition, the concentration for half-maximal inhibition (IC50) in the series with human microglia CHEM5 was found to be 5.71 µM; in series [15], 23.1 µM; in series [16], 2.47 µM.

On to `CC#[N+][Ga-3]123([N+]#CC)[O]c4c(ccc5c4SCCN5C)C=[N+]1C(C#N)=C(C#N)[N+]2=Cc1ccc2c(c1[O]3)SCCN2C.Cl` [Complex 10], for which the half-inhibitory concentration (IC50) in the series with A375 is 91.2 µM; in the series with A549 [12] it was 124 µM; with HeLa [13] it was 87.7 µM; with MCF7 [14] it was 61.7 µM; in the series with SW480, 451 µM; in the series with HepG2, 72.7 µM. Moreover, the IC50 in the series with human microglia CHEM5 was 51.9 µM; in series [15], 322 µM; in [16], 332 µM.

For `CC#[N+][Ga-3]123([N+]#CC)[O]c4cc(N(CC)CC)ccc4C=[N+]1c1ccccc1[N+]2=Cc1ccc(N(CC)CC)cc1[O]3.Cl` [Complex 9], the 50% inhibitory concentration (IC50) in the series with A375 is 1.37 µM; in the series on A549 [12] it was 1.22 µM; with HeLa [13] it was 12.4 µM; with MCF7 [14] it was 34.8 µM; in the series with SW480 it was 4.89 µM; in the series on HepG2 it was 46.1 µM. Moreover, the IC50 with human microglia CHEM5 was found to be 1.81 µM; in series [15], 33.5 µM; in [16], 9.33 µM.

Turning to `C#CCN(C)c1ccc2c(c1)[O][Ga-3]13([N+]#CC)([N+]#CC)[O]c4cc(N(CC)CC)ccc4C=[N+]1C(C#N)=C(C#N)[N+]3=C2.Cl` [Complex 2], the half-inhibitory concentration (IC50) in the series on A375 worked out at 0.83 µM; with A549 [12] it was 2.29 µM; with HeLa [13] it was 6.35 µM; in the series on MCF7 [14], 5.29 µM; in the series with SW480, 2.2 µM; in the series with HepG2, 8.19 µM. For the same compound, the IC50 stood at 2.82 µM in the series with human microglia CHEM5, 4.26 µM in series [15] and 1.88 µM in series [16].
